# Read-outs that look alike come from different tables or passages of the source.
# How the values were obtained:
# KC/GRO in plasma = assay: Rat Tendinopathy Model (2), plasma biomarker KC/GRO; type: in vivo
# Protocol: Fifty (50 μl) of Collagenase Type IA (10 mg/ml in PBS, pH 7.4, approximately 469 units/mg) (Catalog # C5138, Sigma, St. Louis, Mo.) was injected into the Achilles tendon of both ankles near the osteotendinous junction of male Sprague Dawley CD® IGS rats (CRL, Inc.), using insulin syringes with 28.5 G needle.
# Rats were divided into 6 groups, with 6 animals per group except 8 animals in Group 2: Group 1 (sham injection), Group 2 (Collagenase-Vehicle with 0.5% Phx), Group 3 (Collagenase-compound 175 3 mg/mL with 0.5% BA), Group 4 (Collagenase-compound 175 10 mg/mL with 0.5% BA), Group 5 (Collagenase-compound 175 3 mg/mL with 0.5% Phx) and Group 6 (Collagenase-compound 175 10 mg/mL with 0.5% Phx). […] All rats were periodically observed for any pain, illnesses or abnormalities. At various time points, blood was collected for plasma in lithium heparin coated tubes by saphenous vein bleeding. For histology, rats were euthanized using isoflurane, tendons were isolated (n=8 tendons/group), fixed in 10% buffered formalin (Catalog # SF93-4, Fisher, Pittsburgh, Pa.) and H & E histology staining was performed at a secondary site (Pacific Pathology, San Diego, Calif.). For biochemical analysis, tendons were isolated (n=4 tendons/group), flash frozen in liquid nitrogen and then stored at −80° C. for subsequent biochemical analysis (not reported). Additionally, one (1) day after collagenase injection, 4 tendons were collected from Group 2 (vehicle) to observe the induction of inflammation (not reported).
# Following manufacturer's instructions, KC/GRO plasma levels were determined using the KC/GRO Immunoassay kit (Cat #900-K57, Peprotech, Rocky Hill, N.J.). Briefly, 96-well plates were coated with the anti-rat KC/GRO capture antibody overnight and washed to remove excess antibody. Plasma samples were incubated in the coated plates for 2 hours at room temperature. Following washes to remove unbound proteins, biotinylated anti-rat KC/GRO detection antibody was added and incubated for 30 mins at room temperature. Following washes to remove unbound excess antibody, avidin-HRP was added and incubated for 30 mins at room temperature. Following washes to remove unbound avidin-HRP, the ABTS substrate was added and the plates were read on the Cytation 3 plate reader (Biotek Inc., Winooski, Vt.) at an absorbance of 525 nm with correction at 450 nm. All samples were processed in triplicate.
# [1] = Pharmacokinetics after single topical application in rats (plasma, tendon, skin); type: in vivo, rat; conditions: for AUC(0-t) / Cmax / Tmax: topical or ocular; for Kp: tendon and plasma
# Protocol: The compound 175 formulation was applied once topically to each ankle of the hind leg of each animal at 60 μL volume (30 μL/cm^2×2 cm^2) over the area of the Achilles tendon.
# Blood samples (˜0.5 mL) were collected via cardiac puncture, into tubes containing K2EDTA as anticoagulant, at 1, 2, 4, 7 and 24 hours post-dose from 2 animals per timepoint (n=2). Plasma was harvested and frozen at −80° C. for bioanalysis.
# The Achilles tendons from both ankles were collected following euthanasia at 1, 2, 4, 7 and 24 hours post-dose from 2 animals per timepoint (n=4) from all groups. Skin tissue samples were collected from the dose-site at 7 and 24 hours post-dose from 2 animals per timepoint (n=4) in Group 2. Tissues were frozen at −80° C. for bioanalysis. Blood and tissue collection schedule is outlined in Table 8 below.
# Skin tissue samples were processed using the following procedures: 1) Weigh tissue and homogenize using cryoPrep (Covaris); 2) Add 9× volume of Acetonitrile:Methanol (70:30) and vortex for one hour; 3) Aliquot 100 μL of tissue homogenate into 96 microtube polypropylene plate; 4) Add 10 μL of working standard to each standard; 5) Add 10 μL of methanol in all samples and blanks; 6) Add 10 μL of internal standard (IS) to all tubes except blanks; 7) Spin in centrifuge at 3000 rpm for 10 minutes; and 8) Transfer 100 μL of supernatant into 96-well plate containing 150 μL of water. Cap and vortex for LC/MS/MS analysis.
# The chromatograms of the samples were integrated and calibrated using Analyst 1.6.2 (AB Sciex, Redwood City, Calif.). Linear regression with 1/x^2 weighting and internal standardization was used for standard calibration, with an acceptance criterion of ±30% of nominal standard concentration. The lower limit of quantitation (LLOQ) was 2.00 ng/mL (plasma), 6.00 ng/g (tendon) and 25.0 ng/g (skin). Pharmacokinetic parameters were estimated by noncompartmental analysis from individual concentration versus time profiles using Pheonix WinNonlin version 6.3 (Certara, Inc., Princeton, N.J.). The time to maximum concentration (tmax) and the maximum concentration (Cmax) were determined based on measured plasma and tissue concentrations. The area under the curve (AUC0-last) was calculated using the linear trapezoidal rule.
# [2] = Tendon, Group 1, 1 mg/mL, 1% BA, single topical
# [3] = Tendon, Group 2, 10 mg/mL, 1% BA, single topical
# [4] = Tendon, Group 3, 10 mg/mL, no preservative (0.5% Tween 80), single topical
# [5] = male, Sprague Dawley, rat, plasma, 1 mg/mL, Plasma, Group 1, 1 mg/mL, 1% BA, single topical
# [6] = male, Sprague Dawley, rat, plasma, 10 mg/mL, Plasma, Group 2, 10 mg/mL, 1% BA, single topical
# [7] = male, Sprague Dawley, rat, plasma, 10 mg/mL, Plasma, Group 3, 10 mg/mL, no preservative (0.5% Tween 80), single topical
# [8] = male, Sprague Dawley, rat, tendon, 1 mg/mL, Tendon, Group 1, 1 mg/mL, 1% BA, single topical
# [9] = male, Sprague Dawley, rat, tendon, 10 mg/mL, Tendon, Group 2, 10 mg/mL, 1% BA, single topical
# [10] = male, Sprague Dawley, rat, tendon, 10 mg/mL, Tendon, Group 3, 10 mg/mL, no preservative (0.5% Tween 80), single topical
compound,measurement,setting,value
"COc1ccc(NC(=O)c2n[nH]c3ccc(-c4cncc(CN5CCCCC5)c4)cc23)cn1 [compound 175, N-(6-Methoxypyridin-3-yl)-5-(5-(piperidin-1-ylmethyl)pyridin-3-yl)-1H-indazole-3-carboxamide]",plasma KC/GRO vs vehicle,"KC/GRO in plasma; 3 and 10 mg/mL, with either BA or Phx as preservative",significantly decreased the levels of KC/GRO in plasma
same,Plasma KC/GRO Concentration,"KC/GRO in plasma; Day 0, Group 3, 3 mg/mL, 0.5% BA",78.2 ± 14.9 pg/mL
same,Plasma KC/GRO Concentration,"KC/GRO in plasma; Day 0, Group 4, 10 mg/mL, 0.5% BA",224 ± 40.1 pg/mL
same,Plasma KC/GRO Concentration,"KC/GRO in plasma; Day 0, Group 5, 3 mg/mL, 0.5% Phx",112 ± 74.0 pg/mL
same,Plasma KC/GRO Concentration,"KC/GRO in plasma; Day 0, Group 6, 10 mg/mL, 0.5% Phx",254 ± 60.6 pg/mL
same,Plasma KC/GRO Concentration,"KC/GRO in plasma; Day 1, Group 3, 3 mg/mL, 0.5% BA",472 ± 47.2 pg/mL
same,Plasma KC/GRO Concentration,"KC/GRO in plasma; Day 1, Group 4, 10 mg/mL, 0.5% BA",360 ± 31.4 pg/mL
same,Plasma KC/GRO Concentration,"KC/GRO in plasma; Day 1, Group 5, 3 mg/mL, 0.5% Phx",416 ± 47.9 pg/mL
same,Plasma KC/GRO Concentration,"KC/GRO in plasma; Day 1, Group 6, 10 mg/mL, 0.5% Phx",375 ± 44.4 pg/mL
same,Plasma KC/GRO Concentration,"KC/GRO in plasma; Day 3, Group 3, 3 mg/mL, 0.5% BA",449 ± 53.9 pg/mL
same,Plasma KC/GRO Concentration,"KC/GRO in plasma; Day 3, Group 4, 10 mg/mL, 0.5% BA",454 ± 52.2 pg/mL
same,Plasma KC/GRO Concentration,"KC/GRO in plasma; Day 3, Group 5, 3 mg/mL, 0.5% Phx",374 ± 89.1 pg/mL
same,Plasma KC/GRO Concentration,"KC/GRO in plasma; Day 3, Group 6, 10 mg/mL, 0.5% Phx",405 ± 42.1 pg/mL
same,Plasma KC/GRO Concentration,"KC/GRO in plasma; Day 5, Group 3, 3 mg/mL, 0.5% BA",561 ± 97.2 pg/mL
same,Plasma KC/GRO Concentration,"KC/GRO in plasma; Day 5, Group 4, 10 mg/mL, 0.5% BA",327 ± 49.9 pg/mL
same,Plasma KC/GRO Concentration,"KC/GRO in plasma; Day 5, Group 5, 3 mg/mL, 0.5% Phx",431 ± 24.5 pg/mL
same,Plasma KC/GRO Concentration,"KC/GRO in plasma; Day 5, Group 6, 10 mg/mL, 0.5% Phx",328 ± 37.1 pg/mL
same,Plasma KC/GRO Concentration,"KC/GRO in plasma; Day 7, Group 3, 3 mg/mL, 0.5% BA",445 ± 54.5 pg/mL
same,Plasma KC/GRO Concentration,"KC/GRO in plasma; Day 7, Group 4, 10 mg/mL, 0.5% BA",396 ± 92.4 pg/mL
same,Plasma KC/GRO Concentration,"KC/GRO in plasma; Day 7, Group 5, 3 mg/mL, 0.5% Phx",422 ± 47.9 pg/mL
same,Plasma KC/GRO Concentration,"KC/GRO in plasma; Day 7, Group 6, 10 mg/mL, 0.5% Phx",299 ± 53.9 pg/mL
same,Plasma KC/GRO Concentration,"KC/GRO in plasma; Day 14, Group 3, 3 mg/mL, 0.5% BA",319 ± 57.7 pg/mL
same,Plasma KC/GRO Concentration,"KC/GRO in plasma; Day 14, Group 4, 10 mg/mL, 0.5% BA",343 ± 59.4 pg/mL
same,Plasma KC/GRO Concentration,"KC/GRO in plasma; Day 14, Group 5, 3 mg/mL, 0.5% Phx",505 ± 41.0 pg/mL
same,Plasma KC/GRO Concentration,"KC/GRO in plasma; Day 14, Group 6, 10 mg/mL, 0.5% Phx",265 ± 20.8 pg/mL
same,Plasma KC/GRO Concentration,"KC/GRO in plasma; Day 21, Group 3, 3 mg/mL, 0.5% BA",150 ± 53.8 pg/mL
same,Plasma KC/GRO Concentration,"KC/GRO in plasma; Day 21, Group 4, 10 mg/mL, 0.5% BA",350 ± 25.6 pg/mL
same,Plasma KC/GRO Concentration,"KC/GRO in plasma; Day 21, Group 5, 3 mg/mL, 0.5% Phx",226 ± 37.3 pg/mL
same,Plasma KC/GRO Concentration,"KC/GRO in plasma; Day 21, Group 6, 10 mg/mL, 0.5% Phx",342 ± 39.7 pg/mL
same,"plasma KC/GRO levels, range","KC/GRO in plasma; Days 5-21, all four treated groups",150 to 561 pg/mL
same,plasma exposure of Group 3 relative to Group 2,[1]; 10 mg/mL without BA (Tween 80) vs 10 mg/mL with BA,~0.2 ×
same,tendon exposure of Group 3 relative to Group 2,[1]; 10 mg/mL without BA vs 10 mg/mL with BA,~4 ×
same,skin concentration relative to tendon concentrations,"[1]; 7 and 24 hours post-dose, Group 2",roughly 1000 ×
same,increase in tendon AUC(0-last) for a 10× dose-increment,"[1]; Group 2 vs Group 1, formulations containing BA",3.4 ×
same,last,"[1]; Plasma, Group 1, 1 mg/mL, 1% BA, single topical",1.00 h
same,last,"[1]; Plasma, Group 2, 10 mg/mL, 1% BA, single topical",7.00 h
same,last,"[1]; Plasma, Group 3, 10 mg/mL, no preservative (0.5% Tween 80), single topical",7.00 h
same,last,"[1]; Skin, Group 2, 10 mg/mL, 1% BA, single topical",24.0 h
same,AUC(0-last),[1]; [2],2164 ng·h/g
same,last,[1]; [2],24.0 h
same,AUC(0-last),[1]; [3],7270 ng·h/g
same,last,[1]; [3],24.0 h
same,AUC(0-last),[1]; [4],28077 ng·h/g
same,last,[1]; [4],24.0 h
same,AUC(0-t),[1]; [5],0.65 ng·h/mL
same,Cmax,[1]; [5],1.3 ng/mL
same,Tmax,[1]; [5],1 h
same,AUC(0-t),[1]; [6],36.1 ng·h/mL
same,Cmax,[1]; [6],10.6 ng/mL
same,Tmax,[1]; [6],4 h
same,AUC(0-t),[1]; [7],6.79 ng·h/mL
same,Cmax,[1]; [7],1.94 ng/mL
same,Tmax,[1]; [7],7 h
same,Tmax,"[1]; male, Sprague Dawley, rat, skin, 10 mg/mL, Skin, Group 2, 10 mg/mL, 1% BA, single topical",7 h
same,Cmax,"[1]; male, Sprague Dawley, rat, skin, 10 mg/mL, Skin, Group 2, 10 mg/mL, 1% BA, above quantitation limit (AQL > 25000 ng/g), reported as estimated",209000 ng/g
same,concentration at 7 h,"[1]; male, Sprague Dawley, rat, skin, topical, 7 hours post-dose, Group 2, 10 mg/mL containing BA, above quantitation limit, estimated",209000 ng/g
same,concentration at 24 h,"[1]; male, Sprague Dawley, rat, skin, topical, 24 hours post-dose, Group 2, 10 mg/mL containing BA, above quantitation limit, estimated",113000 ng/g
same,Kp,"[1]; male, Sprague Dawley, rat, topical, 1 mg/mL, Tendon to plasma, Group 1, 1 mg/mL, 1% BA, read-out: Tissue/Plasma AUC Ratio",3330
same,Kp,"[1]; male, Sprague Dawley, rat, topical, 10 mg/mL, Tendon to plasma, Group 2, 10 mg/mL, 1% BA, read-out: Tissue/Plasma AUC Ratio",202
same,Kp,"[1]; male, Sprague Dawley, rat, topical, 10 mg/mL, Tendon to plasma, Group 3, 10 mg/mL without BA, read-out: Tissue/Plasma AUC Ratio",4140
same,Kp,"[1]; male, Sprague Dawley, rat, topical, all dose groups, single topical administration, read-out: tendon to plasma ratios, range across groups",202 to 4140
same,Cmax,[1]; [8],519 ng/g
same,Tmax,[1]; [8],1 h
same,Cmax,[1]; [9],1930 ng/g
same,Tmax,[1]; [9],1 h
same,Cmax,[1]; [10],7050 ng/g
same,Tmax,[1]; [10],1 h

# Source: patent US10806726B2, “Methods of using indazole-3-carb oxamides and their use as Wnt/B-catenin signaling pathway inhibitors” (Samumed, LLC, priority 2016, dated 2020)
